Experiments:
[1] = system: Thioglycolate-elicited murine peritoneal macrophages; assay: LPS-stimulated macrophages: NO production, iNOS and ABCA1 mRNA; format: cell-based; details: for iNOS mRNA: 100 ng/ml LPS, 18 h, pretreated with 1 μM ligand, real-time quantitative PCR
Method: To investigate the role of LXRs in host defense, the influence of LXR agonists on macrophage responses to bacterial pathogens was tested. Thioglycolate-elicited peritoneal macrophages were infected in vitro with Escherichia coli. After 18 hours, expression of inducible nitric oxide synthase (iNOS) mRNA and nitric oxide (NO) production were assessed. […] This repression occurs over the same concentration range needed to induce the established LXR target gene ATP-binding cassette transporter A1 (ABCA1). A, LXR agonist inhibits nitrite production in response to bacterial infection. […] Cells were then infected with E. coli (A, B) or treated with 100 ng/ml LPS(C, D, E) as indicated. After 18 h, NO production was determined using a colorimetric assay (A, D), or mRNA levels were determined using real-time quantitative PCR assays (B, C, E). […] The inhibitory effect of LXR agonists on iNOS expression was dose-dependent and occurred over the same range of concentration as that required to induce ATP-binding cassette transporter A1 (ABCA1) (FIGS. 1D and E).
The anti-inflammatory activity of LXR ligands can be separated from the induction of lipid metabolism genes such as ABCA1. Murine peritoneal macrophages were treated with LPS to induce iNOS gene expression (FIG. 8A) and were assayed for ABCA1 mRNA by real time qPCR (FIG. 8B). NOx production was measured by colorimetric assay. […] The identification of LXR agonists with only anti-inflammatory activity should greatly increase the usefulness of such compounds as therapeutic agents, because they lack the unwanted side effects on lipid metabolism such as elevation of triglyceride levels.
Cell culture and transfections. Thioglycolate-elicited peritoneal macrophages were cultured in RPMI containing 10% fetal bovine serum (FBS). RAW 264.7 cells were cultured in DMEM containing 10% FBS. For ligand treatments, cells were in cultured medium supplemented with 5% lipoprotein-deficient serum (LPDS) and ligands for 18 h before stimulation. Bacterial infection in vitro was performed as described (Chen, L. M. et al. 1996 Mol Microbiol 21:1101-1115). Transient transfections of RAW 264.7 cells were performed in triplicate in 48-well plates using Superfect reagent (Life Technologies). After transfection, cells were incubated in medium containing 10% LPDS and the indicated ligands for 18 h before stimulation with LPS for an additional 18 h. Luciferase activity was normalized to β-galactosidase activity. NO production was determined spectrophotometrically (Castrillo, A. et al. 2000 Mol Cell Biol 20:1692-1698).
RNA and protein analysis. Total RNA was extracted using Trizol reagent (Life Technologies, Inc.). Northern blot analysis was carried out as described using radiolabeled cDNA probes (Tontonoz, P. et al. 1998 Cell 93:241-252). Real-time quantitative PCR (TaqMan) analysis was performed using an Applied Biosystems 7700 sequence detector. Two-step real-time PCR was performed as described (Joseph, S. B. et al. 2002 J Biol Chem 277:11019-11025). The primers and probes used are as follows: […]

[2] = system: Thioglycolate-elicited peritoneal macrophages; assay: Macrophage response to E. coli infection: iNOS mRNA and NO production; format: cell-based, murine; details: 18 h, pretreated with 1 μM ligand, real-time quantitative PCR
Method: Thioglycolate-elicited peritoneal macrophages were infected in vitro with Escherichia coli. After 18 hours, expression of inducible nitric oxide synthase (iNOS) mRNA and nitric oxide (NO) production were assessed. […] Cells were then infected with E. coli (A, B) or treated with 100 ng/ml LPS(C, D, E) as indicated. After 18 h, NO production was determined using a colorimetric assay (A, D), or mRNA levels were determined using real-time quantitative PCR assays (B, C, E).
Thioglycolate-elicited peritoneal macrophages were cultured in RPMI containing 10% fetal bovine serum (FBS). […] For ligand treatments, cells were in cultured medium supplemented with 5% lipoprotein-deficient serum (LPDS) and ligands for 18 h before stimulation. […] NO production was determined spectrophotometrically (Castrillo, A. et al. 2000 Mol Cell Biol 20:1692-1698).
Total RNA was extracted using Trizol reagent (Life Technologies, Inc.). […] Real-time quantitative PCR (TaqMan) analysis was performed using an Applied Biosystems 7700 sequence detector.

[3] = system: human aortic endothelial cells; assay: TNF-induced gene expression in human aortic endothelial cells; format: cell-based; details: TNF 6 hours; real time qPCR
Method: (§1) Activation of LXR by synthetic ligands inhibits inflammatory gene expression in multiple human cell types (FIG. 7A-C). TNFα plays a role in the induction of inflammatory mediators in during inflammation. Cells were treated for 6 hours with TNF as indicated and gene expression was measured by real time qPCR.

[4] = system: Thioglycolate-elicited murine peritoneal macrophages; assay: Expression of NF-κB target genes in LPS-treated macrophages (northern blot, real-time quantitative PCR); format: cell-based
Method: LPS is an established inducer of the NF-κB signaling pathway in macrophages. Several genes inhibited by LXR ligands in the array studies above are established targets of NF-κB. To further investigate the role of LXRs in NF-κB-dependent gene expression, we analyzed expression of NF-κB target genes in peritoneal macrophages from wild-type mice. […] Expression of NF-κB target genes was determined by northern blot (A) or by real-time quantitative PCR assays (B). 36B4 was used as a control for RNA loading and integrity. […] RNA and protein analysis. Total RNA was extracted using Trizol reagent (Life Technologies, Inc.). Northern blot analysis was carried out as described using radiolabeled cDNA probes (Tontonoz, P. et al. 1998 Cell 93:241-252). Real-time quantitative PCR (TaqMan) analysis was performed using an Applied Biosystems 7700 sequence detector. Two-step real-time PCR was performed as described (Joseph, S. B. et al. 2002 J Biol Chem 277:11019-11025). The primers and probes used are as follows: […]

[5] = system: human smooth muscle cells; assay: TNF-induced gene expression in human smooth muscle cells; format: cell-based; details: TNF 6 hours; real time qPCR
Method: as §1

[6] = system: human peripheral blood mononuclear cells; assay: TNF-induced gene expression in human peripheral blood mononuclear cells; format: cell-based; details: TNF 6 hours; real time qPCR
Method: as §1

[7] = system: Thioglycolate-elicited murine peritoneal macrophages; assay: IL-1β- or TNFα-induced inflammatory gene expression in macrophages; format: cell-based; details: pretreated 18 h; IL-1β or TNFα (50 ng/ml); real-time quantitative PCR
Method: Next, the influence of LXR agonists on inflammatory gene expression induced by IL-1β and TNFα, which have been implicated in the pathogenesis of atherosclerosis, was tested. […] Gene expression was detected by real-time quantitative PCR assays. […] Total RNA was isolated from individual aortas and gene expression was measured by real-time quantitative PCR. P<0.05 for MMP-9 (*) and P<0.01 (**) for ABCA1. […] Thus, LXR agonist reduces expression of an established inflammatory mediator in the vessel wall. Cell culture and transfections. Thioglycolate-elicited peritoneal macrophages were cultured in RPMI containing 10% fetal bovine serum (FBS). RAW 264.7 cells were cultured in DMEM containing 10% FBS. For ligand treatments, cells were in cultured medium supplemented with 5% lipoprotein-deficient serum (LPDS) and ligands for 18 h before stimulation. Bacterial infection in vitro was performed as described (Chen, L. M. et al. 1996 Mol Microbiol 21:1101-1115). Transient transfections of RAW 264.7 cells were performed in triplicate in 48-well plates using Superfect reagent (Life Technologies). After transfection, cells were incubated in medium containing 10% LPDS and the indicated ligands for 18 h before stimulation with LPS for an additional 18 h. Luciferase activity was normalized to β-galactosidase activity. NO production was determined spectrophotometrically (Castrillo, A. et al. 2000 Mol Cell Biol 20:1692-1698). RNA and protein analysis. Total RNA was extracted using Trizol reagent (Life Technologies, Inc.). Northern blot analysis was carried out as described using radiolabeled cDNA probes (Tontonoz, P. et al. 1998 Cell 93:241-252). Real-time quantitative PCR (TaqMan) analysis was performed using an Applied Biosystems 7700 sequence detector. Two-step real-time PCR was performed as described (Joseph, S. B. et al. 2002 J Biol Chem 277:11019-11025). The primers and probes used are as follows: […]

C57B1/6 mice = assay: Murine model of irritant contact dermatitis (TPA-treated ear); format: in vivo; details: topical 20 μl of 10 mM at 45 min and 4 h post-TPA; 18 h; relative to vehicle-treated ear
Method: The effects of LXR ligands in both acute and chronic inflammatory contexts were evaluated. First, the effects of LXR agonists in a murine model of irritant contact dermatitis (Sheu, M. Y. et al. 2002 J Invest Dermatol 118:94-101) were studied. Ears of C57B1/6 mice (n=5 per group) were treated topically with 12-O-tetradecanoylphorbol-13-acetate (TPA) (left ear) or with vehicle (right ear). […] Thickness and weight of 6-mm punch biopsies were determined for each group after 18 h TPA treatment and are presented relative to vehicle-treated ear. […] Analysis of hematoxylin and eosin (H&E) stained sections of the TPA-treated ears confirmed a reduction in edema and inflammatory infiltrate by LXR agonist. Thus, two structurally unrelated LXR agonists have anti-inflammatory activity in a model of cutaneous inflammation.
Animals. Mice on a mixed background (C57B1/6 and 129v) and Apoe^−/− mice on a C57B1/6 background were maintained on standard chow. […] Irritant contact dermatitis was induced as described (Sheu, M. Y. et al. 2002 J Invest Dermatol 118:94-101). Briefly, 10 μl of 0.03% 12-O-tetradecanoylphorbol-13-acetate (TPA) in acetone was applied to the left ears of male mice. The right ears were treated with vehicle alone. […] After 18 h of TPA treatment, the thickness and weight of 6-mm punch biopsies were determined. Statistical analysis was performed using Student's t-test. Experiments were conducted in accordance of the Animal Research Committee of the University of California, Los Angeles.

Question: For `Cc1cc(SCc2sc(-c3ccc(C(F)(F)F)cc3)nc2C)ccc1OCC(=O)O` [GW1516], which “iNOS mRNA” value [1] is on record?
Answer: minimal effects

Question: And the “iNOS mRNA” value [2]?
Answer: minimal effects

Question: For `O=S(=O)(c1ccccc1)N(CC(F)(F)F)c1ccc(C(O)(C(F)(F)F)C(F)(F)F)cc1` [T1317, N-(2,2,2-trifluoro-ethyl)-N-[4-(2,2,2-trifluoro-1-hydroxy-1-trifluoromethyl-ethyl)-phenyl]-benzenesulfonamide], which TNF-induced gene expression [3] is on record?
Answer: inhibited

Question: What about the “receptor-independent induction of IL-6” value [4] of the same compound?
Answer: modest receptor-independent induction

Question: And the “receptor-independent induction of MCP-1” value [4]?
Answer: modest receptor-independent induction

Question: What about the “activation of ABCA1 gene expression, T1317 compared with GW3965” value ([1]; increasing doses, real time qPCR, FIG. 8B) of the same compound?
Answer: more effective activator

Question: And the TNF-induced gene expression [5]?
Answer: inhibited

Question: What about the TNF-induced gene expression [6] of the same compound?
Answer: inhibited

Question: What about the “induction of IL-6 expression” value [7] of the same compound?
Answer: inhibit

Question: And the “induction of iNOS expression” value [7]?
Answer: inhibit

Question: And the ear thickness (C57B1/6 mice)?
Answer: reduced

Question: And the “ear weight (6-mm punch biopsies)” value (C57B1/6 mice)?
Answer: reduced

Question: For GW7647, which “iNOS mRNA” value [1] is on record?
Answer: minimal effects

Question: What about the “iNOS mRNA” value [2] of the same compound?
Answer: minimal effects

From patent publication US20040259948A1, “Reciprocal regulation of inflammation and lipid metabolism by liver X receptors” (priority 2003, published 2004)
